For orientation: residual activity means the signal under treatment as a percentage of the control signal.

Results on three compounds are retold here after the kinase profiling compilation of Christmann-Franck et al. (2016).

Chain of PRKD2 (human) (Q9BZL6 whole entry, looked up): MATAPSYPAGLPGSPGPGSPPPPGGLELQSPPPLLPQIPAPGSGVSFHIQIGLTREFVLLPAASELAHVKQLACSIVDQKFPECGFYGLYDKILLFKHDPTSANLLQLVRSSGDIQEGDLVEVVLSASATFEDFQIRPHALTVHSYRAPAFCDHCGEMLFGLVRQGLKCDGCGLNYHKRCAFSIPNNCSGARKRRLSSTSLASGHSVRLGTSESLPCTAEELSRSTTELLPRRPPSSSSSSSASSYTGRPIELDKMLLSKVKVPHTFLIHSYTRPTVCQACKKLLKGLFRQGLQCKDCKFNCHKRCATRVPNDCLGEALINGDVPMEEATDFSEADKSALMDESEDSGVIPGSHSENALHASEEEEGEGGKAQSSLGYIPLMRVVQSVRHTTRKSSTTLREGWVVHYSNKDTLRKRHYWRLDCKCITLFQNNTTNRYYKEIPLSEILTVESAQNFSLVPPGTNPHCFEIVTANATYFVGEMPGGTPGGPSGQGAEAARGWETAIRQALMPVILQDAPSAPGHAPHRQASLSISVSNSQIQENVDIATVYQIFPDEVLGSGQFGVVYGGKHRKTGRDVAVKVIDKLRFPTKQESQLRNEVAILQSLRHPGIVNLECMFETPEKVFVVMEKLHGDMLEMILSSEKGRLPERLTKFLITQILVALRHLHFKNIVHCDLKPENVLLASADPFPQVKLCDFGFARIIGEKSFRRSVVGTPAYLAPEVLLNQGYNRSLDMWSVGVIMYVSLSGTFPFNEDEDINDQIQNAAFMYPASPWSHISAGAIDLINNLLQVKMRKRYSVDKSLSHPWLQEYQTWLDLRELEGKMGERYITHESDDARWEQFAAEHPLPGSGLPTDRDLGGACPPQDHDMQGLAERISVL
Chain of MERTK (human) (Q12866 whole entry, looked up): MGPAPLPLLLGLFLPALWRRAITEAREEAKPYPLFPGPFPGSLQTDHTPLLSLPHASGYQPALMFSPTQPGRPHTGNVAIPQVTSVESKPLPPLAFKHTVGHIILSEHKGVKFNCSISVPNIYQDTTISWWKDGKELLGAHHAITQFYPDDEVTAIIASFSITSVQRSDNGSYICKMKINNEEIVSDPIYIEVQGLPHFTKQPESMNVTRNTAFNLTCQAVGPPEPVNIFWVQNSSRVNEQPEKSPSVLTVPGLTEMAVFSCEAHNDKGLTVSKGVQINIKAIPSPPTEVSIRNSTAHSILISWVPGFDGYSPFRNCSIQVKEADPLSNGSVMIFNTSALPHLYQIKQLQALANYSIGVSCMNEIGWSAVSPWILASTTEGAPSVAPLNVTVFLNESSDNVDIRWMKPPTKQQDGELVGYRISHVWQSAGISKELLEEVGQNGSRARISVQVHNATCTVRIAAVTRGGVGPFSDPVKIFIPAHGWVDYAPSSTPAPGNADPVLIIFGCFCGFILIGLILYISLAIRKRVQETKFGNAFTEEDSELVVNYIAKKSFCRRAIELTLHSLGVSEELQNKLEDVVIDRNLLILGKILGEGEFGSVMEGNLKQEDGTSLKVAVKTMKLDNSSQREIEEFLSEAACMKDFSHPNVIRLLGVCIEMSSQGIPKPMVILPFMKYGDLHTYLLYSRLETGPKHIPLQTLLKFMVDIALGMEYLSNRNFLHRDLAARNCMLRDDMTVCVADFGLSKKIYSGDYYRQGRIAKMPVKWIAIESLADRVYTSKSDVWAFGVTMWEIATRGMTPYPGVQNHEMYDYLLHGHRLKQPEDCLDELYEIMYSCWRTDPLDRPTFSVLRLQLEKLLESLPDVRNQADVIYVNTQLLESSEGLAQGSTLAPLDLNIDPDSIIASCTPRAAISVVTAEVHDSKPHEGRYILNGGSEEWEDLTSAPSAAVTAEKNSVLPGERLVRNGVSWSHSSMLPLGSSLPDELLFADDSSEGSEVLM
Chain of WEE1 (human) (P30291 whole entry, looked up): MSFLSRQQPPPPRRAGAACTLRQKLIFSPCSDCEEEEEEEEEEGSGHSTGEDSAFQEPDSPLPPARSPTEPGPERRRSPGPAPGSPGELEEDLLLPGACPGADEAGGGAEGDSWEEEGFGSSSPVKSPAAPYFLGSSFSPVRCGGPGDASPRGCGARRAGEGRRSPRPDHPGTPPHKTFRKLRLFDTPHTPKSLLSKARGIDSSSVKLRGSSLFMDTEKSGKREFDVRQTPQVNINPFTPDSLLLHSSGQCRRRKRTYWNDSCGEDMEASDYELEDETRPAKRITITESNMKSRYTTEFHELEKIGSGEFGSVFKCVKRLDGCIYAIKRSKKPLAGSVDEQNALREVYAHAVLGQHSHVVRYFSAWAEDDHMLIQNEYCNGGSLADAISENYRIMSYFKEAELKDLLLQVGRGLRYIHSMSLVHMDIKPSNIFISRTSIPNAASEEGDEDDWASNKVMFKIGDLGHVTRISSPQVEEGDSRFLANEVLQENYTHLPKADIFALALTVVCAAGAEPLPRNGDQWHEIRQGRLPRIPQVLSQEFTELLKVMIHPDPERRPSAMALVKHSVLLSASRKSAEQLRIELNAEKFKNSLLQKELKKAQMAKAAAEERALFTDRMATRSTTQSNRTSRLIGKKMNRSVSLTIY
Chain of PBK (human) (Q96KB5 whole entry, looked up): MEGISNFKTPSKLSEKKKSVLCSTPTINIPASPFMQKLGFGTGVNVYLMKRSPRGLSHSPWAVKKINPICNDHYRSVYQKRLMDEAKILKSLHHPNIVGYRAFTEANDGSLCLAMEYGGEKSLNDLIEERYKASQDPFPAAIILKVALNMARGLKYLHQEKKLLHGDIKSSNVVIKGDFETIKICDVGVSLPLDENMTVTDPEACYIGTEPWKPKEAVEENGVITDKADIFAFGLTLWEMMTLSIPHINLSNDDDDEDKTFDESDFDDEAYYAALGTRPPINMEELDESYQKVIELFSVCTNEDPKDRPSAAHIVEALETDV

The first test has as its target MAP3K11 (human) (UniProt Q16584). Kind of test: radiometric filter-binding kinase assay, Kinase HotSpot. The settings on record: compound 0.5 µM; ATP 10 µM.
On to `Cn1cnc2cc3c(Nc4cccc(Br)c4)ncnc3cc21`, for which the residual activity is 94.8%.

As for `O=C1Nc2ccccc2/C1=C1\Nc2ccccc2\C1=N/O`, the residual activity worked out at 17.3%.

`O=C(Nc1cccc(Nc2cc(Nc3cccc(C(F)(F)F)c3)ncn2)c1)C1CC1`: the residual activity was 97.7%.

The target of another test is MAPK14 (human) (UniProt Q16539). Described as above. The conditions noted are these: compound 0.5 µM; ATP 10 µM.
Regarding `Cn1cnc2cc3c(Nc4cccc(Br)c4)ncnc3cc21`, the residual activity came out at 93.6%.

In the case of `O=C1Nc2ccccc2/C1=C1\Nc2ccccc2\C1=N/O`, the residual activity stood at 97.2%.

As for `O=C(Nc1cccc(Nc2cc(Nc3cccc(C(F)(F)F)c3)ncn2)c1)C1CC1`, the residual activity is 98.2%.

A further test addresses MARK4 (human) (UniProt Q96L34). The description is as above. The conditions noted are these: compound 0.5 µM; ATP 10 µM.
With `Cn1cnc2cc3c(Nc4cccc(Br)c4)ncnc3cc21`, the residual activity is 105%.

Consider `O=C1Nc2ccccc2/C1=C1\Nc2ccccc2\C1=N/O`, for which the residual activity came out at 56.2%.

As for `O=C(Nc1cccc(Nc2cc(Nc3cccc(C(F)(F)F)c3)ncn2)c1)C1CC1`, the residual activity is 101%.

A further test deals with MATK (human) (UniProt P42679). The test is described as above. The settings on record: compound 0.5 µM; ATP 10 µM.
Turning to `Cn1cnc2cc3c(Nc4cccc(Br)c4)ncnc3cc21`, the residual activity is 85.9%.

For `O=C1Nc2ccccc2/C1=C1\Nc2ccccc2\C1=N/O`, the residual activity was determined as 98%.

Regarding `O=C(Nc1cccc(Nc2cc(Nc3cccc(C(F)(F)F)c3)ncn2)c1)C1CC1`, the residual activity is 96.1%.

A further test addresses MERTK (human) (UniProt Q12866). The test is described as above. The conditions noted are these: compound 0.5 µM; ATP 10 µM.
For `Cn1cnc2cc3c(Nc4cccc(Br)c4)ncnc3cc21`, the residual activity stood at 77.5%.

Regarding `O=C1Nc2ccccc2/C1=C1\Nc2ccccc2\C1=N/O`, the residual activity worked out at 82.2%.

Turning to `O=C(Nc1cccc(Nc2cc(Nc3cccc(C(F)(F)F)c3)ncn2)c1)C1CC1`, the residual activity came to 97.3%.

For another test, the target named is MINK1 (human) (UniProt Q8N4C8). The test is described as above. The settings on record: compound 0.5 µM; ATP 10 µM.
As for `Cn1cnc2cc3c(Nc4cccc(Br)c4)ncnc3cc21`, the residual activity worked out at 82.1%.

Turning to `O=C1Nc2ccccc2/C1=C1\Nc2ccccc2\C1=N/O`, the residual activity turned out to be 50.2%.

Consider `O=C(Nc1cccc(Nc2cc(Nc3cccc(C(F)(F)F)c3)ncn2)c1)C1CC1`, for which the residual activity came out at 95.9%.

In a further test the target is NEK1 (human) (UniProt Q96PY6). Described as above. The settings on record: compound 0.5 µM; ATP 10 µM.
`Cn1cnc2cc3c(Nc4cccc(Br)c4)ncnc3cc21`: the residual activity came out at 97.9%.

Consider `O=C1Nc2ccccc2/C1=C1\Nc2ccccc2\C1=N/O`, for which the residual activity came out at 96.9%.

Consider `O=C(Nc1cccc(Nc2cc(Nc3cccc(C(F)(F)F)c3)ncn2)c1)C1CC1`, for which the residual activity was found to be 109%.

The target of another test is NEK3 (human) (UniProt P51956). Described as above. The settings on record: compound 0.5 µM; ATP 10 µM.
Chain of NEK3 (human) (P51956 whole entry, looked up): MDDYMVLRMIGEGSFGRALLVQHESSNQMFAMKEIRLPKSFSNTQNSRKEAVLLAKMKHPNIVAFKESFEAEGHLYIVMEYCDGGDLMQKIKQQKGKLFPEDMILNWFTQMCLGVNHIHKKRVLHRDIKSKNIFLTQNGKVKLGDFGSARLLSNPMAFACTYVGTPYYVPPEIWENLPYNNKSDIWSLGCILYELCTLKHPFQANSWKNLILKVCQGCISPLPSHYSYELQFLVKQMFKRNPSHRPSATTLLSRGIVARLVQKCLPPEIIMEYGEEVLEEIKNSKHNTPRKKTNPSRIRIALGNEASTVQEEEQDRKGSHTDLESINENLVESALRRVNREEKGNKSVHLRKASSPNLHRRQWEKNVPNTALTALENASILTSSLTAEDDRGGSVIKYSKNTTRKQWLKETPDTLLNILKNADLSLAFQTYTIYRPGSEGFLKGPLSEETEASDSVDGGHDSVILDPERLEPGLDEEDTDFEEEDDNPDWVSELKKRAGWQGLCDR
As to `Cn1cnc2cc3c(Nc4cccc(Br)c4)ncnc3cc21`, the residual activity was determined as 88.2%.

With `O=C1Nc2ccccc2/C1=C1\Nc2ccccc2\C1=N/O`, the residual activity is 102%.

For `O=C(Nc1cccc(Nc2cc(Nc3cccc(C(F)(F)F)c3)ncn2)c1)C1CC1`, the residual activity was 94.4%.

The target of another test is PAK1 (human) (UniProt Q13153). Described as above. The conditions noted are these: compound 0.5 µM; ATP 10 µM.
Chain of PAK1 (human) (Q13153 whole entry, looked up): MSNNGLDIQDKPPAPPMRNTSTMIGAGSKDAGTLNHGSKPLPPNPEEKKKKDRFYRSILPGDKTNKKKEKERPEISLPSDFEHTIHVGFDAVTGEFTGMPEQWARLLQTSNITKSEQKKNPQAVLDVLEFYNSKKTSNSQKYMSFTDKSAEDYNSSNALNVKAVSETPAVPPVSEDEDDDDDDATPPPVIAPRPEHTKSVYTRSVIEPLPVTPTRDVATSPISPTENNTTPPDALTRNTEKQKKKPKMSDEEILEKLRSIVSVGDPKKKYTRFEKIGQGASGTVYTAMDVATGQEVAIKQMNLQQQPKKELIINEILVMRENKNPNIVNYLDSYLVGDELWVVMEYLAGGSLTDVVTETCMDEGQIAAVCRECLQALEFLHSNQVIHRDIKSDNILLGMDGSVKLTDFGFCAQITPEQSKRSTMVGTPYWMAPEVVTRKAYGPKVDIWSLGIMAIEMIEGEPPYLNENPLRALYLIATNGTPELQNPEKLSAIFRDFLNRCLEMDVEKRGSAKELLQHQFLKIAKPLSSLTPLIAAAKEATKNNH
In the case of `Cn1cnc2cc3c(Nc4cccc(Br)c4)ncnc3cc21`, the residual activity stood at 91.4%.

With `O=C1Nc2ccccc2/C1=C1\Nc2ccccc2\C1=N/O`, the residual activity worked out at 86.1%.

For `O=C(Nc1cccc(Nc2cc(Nc3cccc(C(F)(F)F)c3)ncn2)c1)C1CC1`, the residual activity is 96.6%.

The next test concerns the target PBK (human) (UniProt Q96KB5). Described as above. The settings on record: compound 0.5 µM; ATP 10 µM.
On to `Cn1cnc2cc3c(Nc4cccc(Br)c4)ncnc3cc21`, for which the residual activity was determined as 102%.

Turning to `O=C1Nc2ccccc2/C1=C1\Nc2ccccc2\C1=N/O`, the residual activity worked out at 89.5%.

Consider `O=C(Nc1cccc(Nc2cc(Nc3cccc(C(F)(F)F)c3)ncn2)c1)C1CC1`, for which the residual activity stood at 103%.

The next test deals with PHKG1 (human) (UniProt Q16816). The description is as above. The settings on record: compound 0.5 µM; ATP 10 µM.
With `Cn1cnc2cc3c(Nc4cccc(Br)c4)ncnc3cc21`, the residual activity is 85%.

For the compound `O=C1Nc2ccccc2/C1=C1\Nc2ccccc2\C1=N/O`, the residual activity stood at 31.5%.

For the compound `O=C(Nc1cccc(Nc2cc(Nc3cccc(C(F)(F)F)c3)ncn2)c1)C1CC1`, the residual activity is 100%.

The target in a further test is PKN2 (human) (UniProt Q16513). Described as above. The conditions noted are these: compound 0.5 µM; ATP 10 µM.
Regarding `Cn1cnc2cc3c(Nc4cccc(Br)c4)ncnc3cc21`, the residual activity stood at 85.7%.

Consider `O=C1Nc2ccccc2/C1=C1\Nc2ccccc2\C1=N/O`, for which the residual activity was 97.8%.

Turning to `O=C(Nc1cccc(Nc2cc(Nc3cccc(C(F)(F)F)c3)ncn2)c1)C1CC1`, the residual activity amounted to 95.9%.

The target in a further test is PRKCI (human) (UniProt P41743). Described as above. The settings on record: compound 0.5 µM; ATP 10 µM.
As for `Cn1cnc2cc3c(Nc4cccc(Br)c4)ncnc3cc21`, the residual activity came to 100%.

`O=C1Nc2ccccc2/C1=C1\Nc2ccccc2\C1=N/O`: the residual activity turned out to be 92.2%.

For `O=C(Nc1cccc(Nc2cc(Nc3cccc(C(F)(F)F)c3)ncn2)c1)C1CC1`, the residual activity amounted to 98.1%.

Another test has as its target PRKD1 (human) (UniProt Q15139). The description is as above. The conditions noted are these: compound 0.5 µM; ATP 10 µM.
With `Cn1cnc2cc3c(Nc4cccc(Br)c4)ncnc3cc21`, the residual activity was determined as 99.4%.

Take `O=C1Nc2ccccc2/C1=C1\Nc2ccccc2\C1=N/O`: the residual activity was determined as 85%.

Take `O=C(Nc1cccc(Nc2cc(Nc3cccc(C(F)(F)F)c3)ncn2)c1)C1CC1`: the residual activity came out at 100%.

A further test addresses PRKD2 (human) (UniProt Q9BZL6). The test is described as above. The conditions noted are these: compound 0.5 µM; ATP 10 µM.
On to `Cn1cnc2cc3c(Nc4cccc(Br)c4)ncnc3cc21`, for which the residual activity worked out at 82.6%.

In the case of `O=C1Nc2ccccc2/C1=C1\Nc2ccccc2\C1=N/O`, the residual activity was 89%.

On to `O=C(Nc1cccc(Nc2cc(Nc3cccc(C(F)(F)F)c3)ncn2)c1)C1CC1`, for which the residual activity worked out at 103%.

The target in a further test is SLK (human) (UniProt Q9H2G2). The test is described as above. The conditions noted are these: compound 0.5 µM; ATP 10 µM.
In the case of `Cn1cnc2cc3c(Nc4cccc(Br)c4)ncnc3cc21`, the residual activity was 67.8%.

As to `O=C1Nc2ccccc2/C1=C1\Nc2ccccc2\C1=N/O`, the residual activity turned out to be 78.7%.

For the compound `O=C(Nc1cccc(Nc2cc(Nc3cccc(C(F)(F)F)c3)ncn2)c1)C1CC1`, the residual activity stood at 102%.

The next test has as its target STK25 (human) (UniProt O00506). The test is described as above. The conditions noted are these: compound 0.5 µM; ATP 10 µM.
As to `Cn1cnc2cc3c(Nc4cccc(Br)c4)ncnc3cc21`, the residual activity was found to be 99%.

`O=C1Nc2ccccc2/C1=C1\Nc2ccccc2\C1=N/O`: the residual activity came to 87.5%.

Regarding `O=C(Nc1cccc(Nc2cc(Nc3cccc(C(F)(F)F)c3)ncn2)c1)C1CC1`, the residual activity worked out at 97.4%.

The target in the next test is TEK (human) (UniProt Q02763). Described as above. The settings on record: compound 0.5 µM; ATP 10 µM.
Chain of TEK (human) (Q02763 whole entry, looked up): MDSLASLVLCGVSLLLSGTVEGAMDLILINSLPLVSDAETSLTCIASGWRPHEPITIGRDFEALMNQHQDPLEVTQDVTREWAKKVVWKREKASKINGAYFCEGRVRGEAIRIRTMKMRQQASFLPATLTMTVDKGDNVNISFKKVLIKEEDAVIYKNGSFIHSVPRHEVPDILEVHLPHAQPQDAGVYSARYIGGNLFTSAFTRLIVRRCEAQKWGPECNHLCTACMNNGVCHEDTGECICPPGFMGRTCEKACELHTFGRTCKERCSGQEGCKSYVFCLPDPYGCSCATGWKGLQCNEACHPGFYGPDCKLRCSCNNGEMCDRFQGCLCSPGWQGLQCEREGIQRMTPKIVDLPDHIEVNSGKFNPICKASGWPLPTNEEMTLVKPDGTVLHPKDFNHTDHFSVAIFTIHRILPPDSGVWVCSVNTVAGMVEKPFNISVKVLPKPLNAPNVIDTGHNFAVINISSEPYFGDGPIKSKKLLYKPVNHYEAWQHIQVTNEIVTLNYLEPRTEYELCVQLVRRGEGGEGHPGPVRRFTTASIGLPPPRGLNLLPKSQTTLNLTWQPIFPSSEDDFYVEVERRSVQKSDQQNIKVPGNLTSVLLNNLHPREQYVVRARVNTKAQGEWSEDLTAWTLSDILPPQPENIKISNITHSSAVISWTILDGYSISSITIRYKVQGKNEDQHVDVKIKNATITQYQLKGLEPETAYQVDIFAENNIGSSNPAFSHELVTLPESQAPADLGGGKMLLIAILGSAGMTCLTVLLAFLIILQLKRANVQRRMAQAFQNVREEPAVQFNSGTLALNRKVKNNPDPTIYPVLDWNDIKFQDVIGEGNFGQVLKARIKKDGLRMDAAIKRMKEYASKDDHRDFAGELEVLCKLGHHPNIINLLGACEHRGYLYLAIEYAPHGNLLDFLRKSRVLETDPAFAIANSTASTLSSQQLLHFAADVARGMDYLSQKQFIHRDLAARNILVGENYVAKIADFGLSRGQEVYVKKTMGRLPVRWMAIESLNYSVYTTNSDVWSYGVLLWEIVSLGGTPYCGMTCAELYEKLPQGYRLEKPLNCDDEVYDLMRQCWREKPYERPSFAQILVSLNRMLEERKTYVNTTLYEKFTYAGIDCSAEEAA
Take `Cn1cnc2cc3c(Nc4cccc(Br)c4)ncnc3cc21`: the residual activity worked out at 98.9%.

As for `O=C1Nc2ccccc2/C1=C1\Nc2ccccc2\C1=N/O`, the residual activity is 98.7%.

In the case of `O=C(Nc1cccc(Nc2cc(Nc3cccc(C(F)(F)F)c3)ncn2)c1)C1CC1`, the residual activity was found to be 101%.

In the next test the target is TSSK2 (human) (UniProt Q96PF2). The description is as above. The conditions noted are these: compound 0.5 µM; ATP 10 µM.
For `Cn1cnc2cc3c(Nc4cccc(Br)c4)ncnc3cc21`, the residual activity came to 111%.

In the case of `O=C1Nc2ccccc2/C1=C1\Nc2ccccc2\C1=N/O`, the residual activity worked out at 97.7%.

Turning to `O=C(Nc1cccc(Nc2cc(Nc3cccc(C(F)(F)F)c3)ncn2)c1)C1CC1`, the residual activity was 103%.

A further test concerns the target WEE1 (human) (UniProt P30291). The description is as above. The conditions noted are these: compound 0.5 µM; ATP 10 µM.
For the compound `Cn1cnc2cc3c(Nc4cccc(Br)c4)ncnc3cc21`, the residual activity came out at 106%.

For the compound `O=C1Nc2ccccc2/C1=C1\Nc2ccccc2\C1=N/O`, the residual activity was 87.1%.

For `O=C(Nc1cccc(Nc2cc(Nc3cccc(C(F)(F)F)c3)ncn2)c1)C1CC1`, the residual activity was found to be 94%.

The target in another test is WNK2 (human) (UniProt Q9Y3S1). Described as above. The settings on record: compound 0.5 µM; ATP 10 µM.
Regarding `Cn1cnc2cc3c(Nc4cccc(Br)c4)ncnc3cc21`, the residual activity turned out to be 89.7%.

Consider `O=C1Nc2ccccc2/C1=C1\Nc2ccccc2\C1=N/O`, for which the residual activity came out at 99.8%.

With `O=C(Nc1cccc(Nc2cc(Nc3cccc(C(F)(F)F)c3)ncn2)c1)C1CC1`, the residual activity turned out to be 109%.
